From patent publication US9126945B2, “N-(3-carbamoylphenly)-1H-pyrazole-5-carboxamide derivatives and the use thereof for controlling animal pests” (BAYER INTELLECTUAL PROPERTY GMBH, priority 2011, dated 2015)

Legend:
Spodoptera frugiperda = Spodoptera frugiperda test (SPODFR spray treatment), maize leaf discs; format: in vivo; settings: application rate 500 g/ha; after 7 days
Excerpt: Spodoptera frugiperda Test (SPODFR Spray Treatment)

Myzus persicae = experiment: Myzus test (MYZUPE spray treatment); format: in vivo; settings: for efficacy in %: application rate 500 g/ha, after 6 days; for inhibition at 100 g/ha / inhibition at 20 g/ha: Myzus persicae, 144 h
Protocol: Myzus test (Myzupe spray treatment)
After 6 days, the efficacy in % is determined.
Myzus Test (MYZUPE Spray Treatment)

Tetranychus urticae = experiment: Tetranychus test, OP-resistant (TETRUR spray treatment), bean leaf discs; format: in vivo; settings: for efficacy in %: application rate 500 g/ha, after 6 days
Protocol: Tetranychus Test, OP-Resistant (TETRUR Spray Treatment)
After a time of 6 days, the efficacy in % is determined.

[1] = log P by HPLC, EEC Directive 79/831 Annex V.A8, method a); format: physicochemical
Protocol: (§1) ^a) Note regarding the determination of the log P values and mass detection The determination of the given log P values was carried out in accordance with EEC Directive 79/831 Annex V.A8 by HPLC (High Performance Liquid Chromatography) on a reversed-phase column (C18). Agilent 1100 LC system; 50*4.6 Zorbax Eclipse Plus C18 1.8 micron; mobile phase A: acetonitrile (0.1% formic acid); mobile phase B: water (0.09% formic acid); linear gradient from 10% acetonitrile to 95% acetonitrile in 4.25 min, then 95% acetonitrile for a further 1.25 min; oven temperature 55° C.; flow rate: 2.0 ml/min Mass detection is via an Agilend MSD system.
as §1, with “mass detection:” for “mass detection”, “2.0 ml/min.” for “2.0 ml/min”

Phaedon cochleariae [2] = experiment: Phaedon test (PHAECO spray treatment), Chinese cabbage leaf discs; settings: for efficacy in %: application rate 500 g/ha, after 7 days
Ctenocephalides felis = Ctenocephalides felis oral (CTECFE); format: in vivo
Protocol: Ctenocephalides felis Oral (CTECFE)
Solvent: 1 part by weight of dimethyl sulphoxide
For the purpose of producing a suitable preparation of active compound, 10 mg of active compound are mixed with 0.5 ml of dimethyl sulphoxide. A portion of the concentrate is diluted with citrated cattle blood, and the desired concentration is prepared.
(§2) About 20 unfed adult fleas (Ctenocephalides felis) are placed into a chamber which is closed at the top and bottom with gauze. A metal cylinder whose bottom end is closed with parafilm is placed onto the chamber. The cylinder contains the blood/active compound preparation, which can be taken up by the fleas through the parafilm membrane. After 2 days, the kill in % is determined.
For the purpose of preparing an appropriate active compound formulation, 10 mg of active compound are mixed with 0.5 ml of dimethyl sulphoxide. A portion of the concentrate is diluted with citrated cattle blood, and the desired concentration is prepared.
as §2, with “membrane.” for “membrane. After 2 days, the kill in % is determined.”

Boophilus microplus = Boophilus microplus test (BOOPMI injection); format: in vivo; settings: for % Activity dat: BOOPMI injection, 7 dat
Protocol: Boophilus microplus Test (BOOPMI Injection)
(§3) Solvent: dimethyl sulphoxide
The active compound solution is injected into the abdomen (Boophilus microplus), and the animals are transferred into dishes and stored in a climate-controlled room. The activity is assessed by laying of fertile eggs.
The active compound solution is injected into the abdomen (Boophilus microplus), and the animals are transferred into dishes and stored in a climate-controlled room.
The activity is assessed by laying of fertile eggs. 100% means that none of the ticks has laid any fertile eggs.

[3] = system: Boophilus microplus females of the SP-resistant Parkhurst strain; experiment: Boophilus microplus test (DIP); format: in vivo; settings: Rhipicephalus microplus, 168 h, BOOPMI DIP, 7 dat
Protocol: Boophilus microplus Test (DIP)
Test animals: adult engorged Boophilus microplus females of the SP-resistant Parkhurst strain
as §3
10 mg of active compound are dissolved in 0.5 ml of dimethyl sulphoxide. For the purpose of preparing a suitable formulation, the active compound solution is diluted with water to the concentration desired in each case.
This active compound preparation is pipetted into tubes. 8-10 ticks are transferred into a further tube with holes. The tube is immersed into the active compound formulation, and all ticks are completely wetted. After the liquid has rum off, the ticks are transferred to filter discs in plastic dishes and kept in a climatized room. The activity is assessed after 7 days by laying of fertile eggs. Eggs whose fertility is not outwardly visible are stored in glass tubes in a climate-controlled cabinet until the larvae hatch. An efficacy of 100% means that none of the ticks has laid any fertile eggs.
10 mg of active compound are dissolved in 0.5 ml of dimethyl sulphoxide. For the purpose of preparing a suitable formulation, the active compound solution is diluted with water to the concentration desired in each case (in ppm).
This active compound preparation is pipetted into tubes. 8-10 ticks are transferred into a further tube with holes. The tube is immersed into the active compound formulation, and all ticks are completely wetted. After the liquid has run out, the ticks are transferred onto filter discs in plastic dishes and stored in a climate-controlled room.
The activity is assessed after the desired time by laying of fertile eggs. Eggs whose fertility is not evident from the outside are kept in glass tubes in a climate-controlled cabinet until the larvae have hatched. An effect of 100% means that none of the ticks has laid any fertile eggs.

Phaedon cochleariae [4] = experiment: Phaedon cochleariae spray test (PHAECO), cabbage leaves, ppm; format: in vivo; settings: 168 h, 7 dat
Excerpt: Phaedon cochleariae Spray Test (PHAECO)
Solvent: 7 parts by weight of dimethylformamide
Emulsifier: 2 parts by weight of alkylaryl polyglycol ether
(§4) If the addition of ammonium salts or/and penetrants is required, these are in each case added in a concentration of 1000 ppm to the solution of the preparation.

Nilaparvata lugens = Nilaparvata lugens spray test (NILALU); format: in vivo
Excerpt: Nilaparvata lugens Spray Test (NILALU)
as §4

[5] = cell marked a): HPLC, reversed-phase C18, acetonitrile/water with formic acid, gradient 10% to 95% acetonitrile
[6] = Tetranychus urticae, foliar, 144 h, TETRUR, 6 dat
[7] = reversed-phase C18 HPLC column; HPLC-MS method a), reversed-phase C18, acetonitrile/water with formic acid
[8] = cell prints no method mark; Ex. 40 value equals the log P given under method a)

CCN(C(=O)c1cc(N(C)C(=O)c2c(C(F)(F)F)c(C(F)(F)C(F)(F)F)nn2C)ccc1Cl)C1(C#N)CC1 [Example 4]
efficacy in % (Spodoptera frugiperda): 100%
efficacy in % (Myzus persicae): 100%
efficacy in % (Tetranychus urticae): 100%
logP [1, 5]: 3.77 ^a)
efficacy in % (Phaedon cochleariae [2]): 100%

Cn1nc(C(F)(F)C(F)(F)F)c(C(F)(F)F)c1C(=O)Nc1ccc(F)c(C(=O)NC2CC2)c1 [Ik-155, reference compound]
inhibition at 100 g/ha (Myzus persicae; MYZUPE, 100 g/ha, 6 dat): 0%
inhibition at 100 g/ha (Tetranychus urticae; [6]): 0%

CN(C(=O)c1c(C(F)(F)F)c(C(F)(F)F)nn1C)c1ccc(Cl)c(C(=O)NC2(C#N)CC2)c1 [Example 2, N-{4-Chloro-3-[(1-cyanocyclopropyl)carbamoyl]phenyl}-N,1-dimethyl-3,4-bis(trifluoromethyl)-1H-pyrazole-5-carboxamide]
efficacy in % (Spodoptera frugiperda): 100%
efficacy in % (Myzus persicae): 100%
efficacy in % (Tetranychus urticae): 100%
kill in % (effect) (Ctenocephalides felis; 100 ppm, after 2 days): 100%
efficacy in % (laying of fertile eggs) (Boophilus microplus; 20 μg/animal, after 7 days): 100%
chromatographic logP [1, 7]: 2.81
efficacy in % (Phaedon cochleariae [2]): 100%

CN(C(=O)c1c(Cl)c(C2(Cl)CC2)nn1C)c1ccc(Cl)c(C(=O)NC2(C#N)CC2)c1 [Example 3]
efficacy in % (Tetranychus urticae): 100%
logP [1, 5]: 2.46 ^a)
efficacy in % (Phaedon cochleariae [2]): 100%

CCN(C(=O)c1c(C(F)(F)F)c(C(F)(F)C(F)(F)F)nn1C)c1ccc(Cl)c(C(=O)NC2CC2)c1 [Ik-136, reference compound]
inhibition at 20 g/ha (Myzus persicae; MYZUPE, 6 dat): 0%
inhibition at 20 g/ha (Tetranychus urticae; Tetranychus urticae, foliar, 144 h, TETRUR, 20 g/ha, 6 dat): 0%
inhibition at 0.8 ppm (Ctenocephalides felis; Ctenocephalides felis, po, 48 h, CTECFE, 0.8 ppm, 2 dat): 30%
% Activity dat (Boophilus microplus; 0.032 μg/animal): 0%
inhibition at 20 ppm ([3]; 20 ppm): 0%
inhibition at 0.8 ppm (Phaedon cochleariae [4]; 0.8 ppm): 0%
inhibition at 20 g/ha (Nilaparvata lugens; 168 h, 20 g/ha, 7 dat): 0%

CCC1CC1NC(=O)c1cc(NC(=O)c2c(C(F)(F)F)c(C(F)(F)C(F)(F)F)nn2C)ccc1Cl (stereo not shown) [Ik-286, reference compound]
inhibition at 20 g/ha (Myzus persicae; MYZUPE, 6 dat): 0%
inhibition at 4 ppm (Ctenocephalides felis; Ctenocephalides felis, po, 48 h, CTECFE, 4 ppm, 2 dat): 0%
% Activity dat (Boophilus microplus; 0.16 μg/animal): 20%
inhibition at 100 ppm ([3]; 100 ppm): 40%
inhibition at 100 g/ha (Phaedon cochleariae [2]; Phaedon cochleariae, in Brassica rapa, foliar, 168 h, read-out: % Activity dat): 0%

Cn1nc(C(F)(F)C(F)(F)F)c(C(F)(F)F)c1C(=O)Nc1ccc(Br)c(C(=O)NC2CC2)c1 [Ik-175, reference compound]
inhibition at 100 g/ha (Myzus persicae; MYZUPE, 100 g/ha, 6 dat): 0%
inhibition at 4 ppm (Phaedon cochleariae [4]): 10%
inhibition at 500 g/ha (Nilaparvata lugens; 168 h, 7 dat): 0%

CN(C(=O)c1c(C(F)(F)F)c(C(F)(F)C(F)(F)F)nn1C)c1ccc(Cl)c(C(=O)N(C)C2(C#N)CC2)c1 [Example 5]
efficacy in % (Spodoptera frugiperda): 100%
efficacy in % (Myzus persicae): 90%
efficacy in % (Tetranychus urticae): 100%
logP [1, 5]: 3.59 ^a)
efficacy in % (Phaedon cochleariae [2]): 100%

CCCn1nc(C(F)(F)C(F)(F)F)c(C(F)(F)F)c1C(=O)N(C)c1ccc(Cl)c(C(=O)N(C)C2(C#N)CC2)c1 [Example 46]
logP [1, 8]: 4.26

CCOC(=O)N(C(=O)c1c(C(F)(F)F)c(C(F)(F)C(F)(F)F)nn1C)c1ccc(Cl)c(C(=O)N(C(=O)OCC)C2(C#N)CC2)c1 [Example 22]
logP [1, 8]: 4.80

C#CCN(C(=O)c1c(C(F)(F)F)c(C(F)(F)C(F)(F)F)nn1C)c1ccc(Cl)c(C(=O)NC2(C#N)CC2)c1 [Example 26]
logP [1, 8]: 3.41

Cn1nc(C(F)(F)C(F)(F)F)c(C(F)(F)F)c1C(=O)Nc1ccc(F)c(C(=O)NC2(C#N)CC2)c1 [Example 27]
logP [1, 8]: 3.21

CC(=O)N(C(=O)c1c(C(F)(F)F)c(C(F)(F)C(F)(F)F)nn1C)c1ccc(Cl)c(C(=O)N(C(C)=O)C2(C#N)CC2)c1 [Example 18]
logP [1, 8]: 4.04

N#CC1(NC(=O)c2cc(N)ccc2Cl)CC1 [5-Amino-2-chloro-N-(1-cyanocyclopropyl)benzamide]
chromatographic logP [1, 7]: 0.82

Cn1nc(C(F)(F)C(F)(F)F)c(S(C)(=O)=O)c1C(=O)Nc1ccc(Cl)c(C(=O)NC2(C#N)CC2)c1 [Example 49]
logP [1, 8]: 2.47

N#CC1(NC(=O)c2cc(NC(=O)c3c(C(F)(F)F)c(C(F)(F)C(F)(F)F)nn3CC(F)(F)F)ccc2Cl)CC1 [Example 64]
logP [1, 8]: 3.60

Cn1nc(C(F)(F)F)c(C(F)(F)F)c1C(=O)Nc1cc(Cl)c(Br)c(C(=O)NC2(C#N)CC2)c1 [Example 12]
logP [1, 8]: 3.27

CCC(=O)N(C(=O)c1cc(NC(=O)c2c(C(F)(F)F)c(C(F)(F)C(F)(F)F)nn2C)ccc1Cl)C1(C#N)CC1 [Example 15]
logP [1, 8]: 4.17

Cn1nc(C2(F)CC2)c(Br)c1C(=O)Nc1ccc(Cl)c(C(=O)NC2(C#N)CC2)c1 [Example 1, 4-Bromo-N-{4-chloro-3-[(1-cyanocyclopropyl)carbamoyl]phenyl}-3-(1-fluorocyclopropyl)-1-methyl-1H-pyrazole-5-carboxamide]
efficacy in % (Tetranychus urticae): 100%
chromatographic logP [1, 7]: 2.5
efficacy in % (Phaedon cochleariae [2]): 100%

CCn1nc(C(F)(F)C(F)(F)F)c(C(F)(F)F)c1C(=O)N(C)c1ccc(Cl)c(C(=O)N(C)C2(C#N)CC2)c1 [Example 41]
logP [1, 8]: 3.85

Cn1nc(C(F)(F)C(F)(F)F)c(C(F)(F)F)c1C(=O)Nc1ccc(Br)c(C(=O)NC2(C#N)CC2)c1 [Example 14]
% Activity dat (Myzus persicae; MYZUPE, 100 g/ha, 6 dat): 100 6 dat 100 6 dat %
inhibition at 100 g/ha (Myzus persicae; MYZUPE, 100 g/ha, 6 dat): 100%
inhibition at 100 g/ha (Tetranychus urticae; [6]): 100%
inhibition at 4 ppm (Phaedon cochleariae [4]): 100%
inhibition at 500 g/ha (Nilaparvata lugens; 96 h, 4 dat): 80%
chromatographic logP ([1]; reversed-phase HPLC column (C18); cell prints no method mark; Ex. 40 value equals the log P given under method a)): 3.31

CC(=O)N(C(=O)c1c(C(F)(F)F)c(C(F)(F)C(F)(F)F)nn1C)c1ccc(Cl)c(C(=O)NC2(C#N)CC2)c1 [Example 53]
logP [1, 8]: 3.63
